Measured values taken from patent US12077503B2, “Substituted cyclic amides and their use as herbicides” (FMC CORPORATION, priority 2015, dated 2024).

Key:
Type in all cases: in vivo
[1] = test system: velvetleaf (Abutilon theophrasti); experiment: Test G Pre-Emergence Protocol; conditions: Abutilon theophrasti, pre-emergence, 312 h, evaluated after 13 days
Summary of the method: (§1)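 One day after sowing, pots are treated with a spray of test compound formulated in acetone/water 50:50 plus 0.5% Tween 20, giving 15.625, 62.5 or 250 g/ha. Evaluation on a 0–100 damage scale follows 13 days of glasshouse growth.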

[2] = test system: ivy-leaved morning glory (Ipomoea hederacea); experiment: Test G Pre-Emergence Protocol; conditions: Ipomoea, pre-emergence, 312 h, evaluated after 13 days
Summary of the method: as §1

corn (Zea mays) [3] = experiment: Test G Pre-Emergence Protocol; conditions: Zea mays, pre-emergence, 312 h, evaluated after 13 days
Summary of the method: as §1

[4] = test system: redroot pigweed (Amaranthus retroflexus); experiment: Test G Pre-Emergence Protocol; conditions: Amaranthus retroflexus, pre-emergence, 312 h, evaluated after 13 days
Summary of the method: as §1

[5] = test system: giant foxtail (Setaria faberi); experiment: Test G Pre-Emergence Protocol; conditions: Setaria faberi, pre-emergence, 312 h, evaluated after 13 days
Summary of the method: as §1

[6] = test system: barnyardgrass (Echinochloa crus-galli); experiment: Test G Pre-Emergence Protocol; conditions: Echinochloa crus-galli, pre-emergence, 312 h, evaluated after 13 days
Summary of the method: as §1

[7] = test system: velvetleaf (Abutilon theophrasti); experiment: Test G Post-Emergence Protocol; conditions: Abutilon theophrasti, post-emergence, 312 h
Summary of the method: (§2)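 Eight days post-sowing, plants received a spray of test compound (acetone/water 50:50, 0.5% Tween 20) at 15.625, 62.5 or 250 g/ha. Glasshouse regime thereafter: 24/16 °C, 14 h light, 65% humidity. Assessment after 13 days on a 0–100 damage scale.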

[8] = test system: ivy-leaved morning glory (Ipomoea hederacea); experiment: Test G Post-Emergence Protocol; conditions: Ipomoea, post-emergence, 312 h, 15.625 g ai/ha, evaluated after 13 days (100=total damage to plant; 0=no damage to plant), read-out: Morningglory, Ivy-leaved damage rating
Summary of the method: as §2

corn (Zea mays) [9] = experiment: Test G Post-Emergence Protocol; conditions: Zea mays, post-emergence, 312 h
Summary of the method: as §2

[10] = test system: redroot pigweed (Amaranthus retroflexus); experiment: Test G Post-Emergence Protocol; conditions: Amaranthus retroflexus, post-emergence, 312 h
Summary of the method: as §2

[11] = test system: giant foxtail (Setaria faberi); experiment: Test G Post-Emergence Protocol; conditions: Setaria faberi, post-emergence, 312 h
Summary of the method: as §2

[12] = test system: barnyardgrass (Echinochloa crus-galli); experiment: Test G Post-Emergence Protocol; conditions: Echinochloa crus-galli, post-emergence, 312 h
Summary of the method: as §2

Cc1n[nH]c(NC(=O)[C@@H]2C(=O)N(C)C[C@H]2c2ccc(C(F)(F)F)cc2)c1C#N (racemic) [Compound 1582]
0%: pest or weed control at 15.625 g/ha ([1]; 15.625 g ai/ha, read-out: Velvetleaf damage rating (100=total damage to plant; 0=no damage to plant)) | pest or weed control at 62.5 g/ha ([1]; 62.5 g ai/ha, 100=total damage to plant, 0=no damage to plant, read-out: plant damage rating, Velvetleaf) | pest or weed control at 250 g/ha ([1]; 250 g ai/ha, read-out: Velvetleaf damage rating (100=total damage to plant; 0=no damage to plant)) | pest or weed control at 15.625 g/ha ([2]; 15.625 g ai/ha, read-out: Morning-glory, Ivy-leaved damage rating (100=total damage to plant; 0=no damage to plant)) | pest or weed control at 62.5 g/ha ([2]; 62.5 g ai/ha, 100=total damage to plant, 0=no damage to plant, read-out: plant damage rating, Morningglory, Ivy-leaved) | pest or weed control at 250 g/ha ([2]; 250 g ai/ha, read-out: Morningglory, Ivy-leaved damage rating (100=total damage to plant; 0=no damage to plant)) | plant injury at 15.625 g/ha (corn (Zea mays) [3]; 15.625 g ai/ha, read-out: Corn damage rating (100=total damage to plant; 0=no damage to plant)) | plant injury at 62.5 g/ha (corn (Zea mays) [3]; 62.5 g ai/ha, 100=total damage to plant, 0=no damage to plant, read-out: plant damage rating, Corn) | plant injury at 250 g/ha (corn (Zea mays) [3]; 250 g ai/ha, read-out: Corn damage rating (100=total damage to plant; 0=no damage to plant)) | pest or weed control at 15.625 g/ha ([4]; 15.625 g ai/ha, read-out: Pigweed, Redroot damage rating (100=total damage to plant; 0=no damage to plant)) | pest or weed control at 62.5 g/ha ([4]; 62.5 g ai/ha, 100=total damage to plant, 0=no damage to plant, read-out: plant damage rating, Pigweed, Redroot) | pest or weed control at 250 g/ha ([4]; 250 g ai/ha, read-out: Pigweed, Redroot damage rating (100=total damage to plant; 0=no damage to plant)) | pest or weed control at 15.625 g/ha ([5]; 15.625 g ai/ha, read-out: Foxtail, Giant damage rating (100=total damage to plant; 0=no damage to plant)) | pest or weed control at 62.5 g/ha ([5]; 62.5 g ai/ha, 100=total damage to plant, 0=no damage to plant, read-out: plant damage rating, Foxtail, Giant) | pest or weed control at 250 g/ha ([5]; 250 g ai/ha, read-out: Foxtail, Giant damage rating (100=total damage to plant; 0=no damage to plant)) | pest or weed control at 15.625 g/ha ([6]; 15.625 g ai/ha, read-out: Barnyard grass damage rating (100=total damage to plant; 0=no damage to plant)) | pest or weed control at 62.5 g/ha ([6]; 62.5 g ai/ha, 100=total damage to plant, 0=no damage to plant, read-out: plant damage rating, Barnyardgrass) | pest or weed control at 250 g/ha ([6]; 250 g ai/ha, read-out: Barnyardgrass damage rating (100=total damage to plant; 0=no damage to plant)) | pest or weed control at 15.625 g/ha ([7]; 15.625 g ai/ha, evaluated after 13 days (100=total damage to plant; 0=no damage to plant), read-out: Velvetleaf damage rating) | pest or weed control at 62.5 g/ha ([7]; 62.5 g ai/ha, evaluated after 13 days, read-out: Velvetleaf damage rating (100=total damage to plant; 0=no damage to plant)) | pest or weed control at 250 g/ha ([7]; 250 g ai/ha, evaluated after 13 days, read-out: damage to plant, Velvetleaf (100=total damage to plant; 0=no damage to plant)) | pest or weed control at 15.625 g/ha [8] | plant injury at 15.625 g/ha (corn (Zea mays) [9]; 15.625 g ai/ha, evaluated after 13 days (100=total damage to plant; 0=no damage to plant), read-out: Corn damage rating) | plant injury at 62.5 g/ha (corn (Zea mays) [9]; 62.5 g ai/ha, evaluated after 13 days, read-out: Corn damage rating (100=total damage to plant; 0=no damage to plant)) | plant injury at 250 g/ha (corn (Zea mays) [9]; 250 g ai/ha, evaluated after 13 days, read-out: damage to plant, Corn (100=total damage to plant; 0=no damage to plant)) | pest or weed control at 15.625 g/ha ([10]; 15.625 g ai/ha, evaluated after 13 days (100=total damage to plant; 0=no damage to plant), read-out: Pigweed, Redroot damage rating) | pest or weed control at 62.5 g/ha ([10]; 62.5 g ai/ha, evaluated after 13 days, read-out: Pigweed, Redroot damage rating (100=total damage to plant; 0=no damage to plant)) | pest or weed control at 250 g/ha ([10]; 250 g ai/ha, evaluated after 13 days, read-out: damage to plant, Pigweed, Redroot (100=total damage to plant; 0=no damage to plant)) | pest or weed control at 15.625 g/ha ([11]; 15.625 g ai/ha, evaluated after 13 days (100=total damage to plant; 0=no damage to plant), read-out: Foxtail, Giant damage rating) | pest or weed control at 62.5 g/ha ([11]; 62.5 g ai/ha, evaluated after 13 days, read-out: Foxtail, Giant damage rating (100=total damage to plant; 0=no damage to plant)) | pest or weed control at 250 g/ha ([11]; 250 g ai/ha, evaluated after 13 days, read-out: damage to plant, Foxtail, Giant (100=total damage to plant; 0=no damage to plant)) | pest or weed control at 15.625 g/ha ([12]; 15.625 g ai/ha, evaluated after 13 days (100=total damage to plant; 0=no damage to plant), read-out: Barnyardgrass damage rating) | pest or weed control at 62.5 g/ha ([12]; 62.5 g ai/ha, evaluated after 13 days, read-out: Barnyardgrass damage rating (100=total damage to plant; 0=no damage to plant)) | pest or weed control at 250 g/ha ([12]; 250 g ai/ha, evaluated after 13 days, read-out: damage to plant, Barnyardgrass (100=total damage to plant; 0=no damage to plant))
